The text below walks through data of patent US20250387426A1 (priority 2024, published 2025).

One series deals with migraine headache. To be noted: human, in vivo.
Another series concerns tension headache. The note with it: human, in vivo.

For `NC(=O)N1c2ccccc2C=Cc2ccccc21` [carbamazepine], the “benefit as migraine prophylactic agent” value in the series on migraine headache is “without benefit”. The same measure, in the same setting: for `CCCC(CCC)C(=O)O` [valproic acid] the value was “without benefit”. On to `Oc1ccc2c(c1)[C@@]13CCCC[C@@]1(O)[C@@H](C2)N(CC1CCC1)CC3` [butorphanol], for which the “benefit as rescue medication” value with migraine headache is given as “without benefit”. With `CN(C)CCc1c[nH]c2ccc(C[C@H]3COC(=O)N3)cc12` [zolmitriptan nasal spray, zolmitriptan], the “benefit as rescue medication” value with migraine headache is listed as “without benefit”. For the molecule `CC(C)NCC(O)COc1cccc2ccccc12` (centres unmarked) [propranolol], in the series on migraine headache, the “benefit as migraine prophylactic agent” value was “without benefit”, the “benefit from previous treatment” value is “no benefit” and the “tolerability” value is reported as “caused dizziness”. For the molecule `CC(C)Cc1ccc(C(C)C(=O)O)cc1` (centres unmarked) [ibuprofen], the “headache relief” value in the series on tension headache is reported as “may resolve with ibuprofen”. Also, the “benefit from previous treatment” value in the series with migraine headache was “no benefit”. As to `CCCCN1CCCCC1C(=O)Nc1c(C)cccc1C` (centres unmarked) [bupivacaine], in the series on migraine headache, the “pain after local anesthetic injection along superior nuchal line” value is given as “substantially improved for two days”. On to `CC1(C)O[C@@H]2[C@@H](CO[C@@]3(COS(N)(=O)=O)OC(C)(C)O[C@@H]23)O1` [topiramate], for which, in the series on migraine headache, the “benefit as migraine prophylactic agent” value was “without benefit”, the “severe migraine headache frequency” value is reported as 5 to 7 days a week and the “tolerability” value was “could not tolerate the side effects”. For `Clc1ccc2nsnc2c1NC1=NCCN1` [tizanidine], in the series on migraine headache, the “benefit as migraine prophylactic agent” value is recorded as “without benefit” and the “benefit as migraine prophylaxis” value is “partially helpful”. Regarding `CCCCc1nc(Cl)c(CO)n1Cc1ccc(-c2ccccc2-c2nn[nH]n2)cc1` [losartan], the “benefit as migraine prophylaxis” value with migraine headache is recorded as “no benefit”. Consider `C[C@]12C=CC(=O)C=C1CC[C@@H]1[C@@H]2C(=O)C[C@@]2(C)[C@H]1CC[C@]2(O)C(=O)CO` [prednisone], for which the “benefit as migraine prophylactic agent” value in the series with migraine headache is listed as “without benefit”. For the molecule `CC(C)C[C@H](CN)CC(=O)O` [pregabalin], the “comorbid neuropathic facial pain” value in the series with tension headache is “treated effectively”. In addition, the “benefit as migraine prophylactic agent” value with migraine headache was “without benefit”.

Regarding `NS(=O)(=O)Cc1noc2ccccc12` [zonisamide], the “benefit as migraine prophylactic agent” value in the series on migraine headache is reported as “without benefit”. On to `CN1CCC[C@@H]1Cc1c[nH]c2ccc(CCS(=O)(=O)c3ccccc3)cc12` [eletriptan], for which the “benefit as rescue medication” value in the series with migraine headache was “consistently effective”. Regarding `NCC1(CC(=O)O)CCCCC1` [gabapentin], in the series on migraine headache, the “benefit as migraine prophylactic agent” value was “without benefit”, the “benefit as migraine prophylaxis” value is “no benefit” and the “benefit from previous treatment” value was “no benefit”.

For `Cc1cc2nc3c(=O)[nH]c(=O)nc-3n(C[C@H](O)[C@H](O)[C@H](O)CO)c2cc1C` [riboflavin], in the series on migraine headache, the “effect on headache frequency” value was “did not affect the frequency of their headaches”. In the case of `NCC(CC(=O)O)c1ccc(Cl)cc1` (centres unmarked) [baclofen], in the series on migraine headache, the “benefit as migraine prophylactic agent” value is reported as “without benefit”, the “benefit as migraine prophylaxis” value is on record as “no benefit” and the “benefit from previous treatment” value is recorded as “no benefit”.

Regarding `CN(C)CCC=C1c2ccccc2CCc2ccccc21` [amitriptyline], the “benefit as migraine prophylactic agent” value in the series with migraine headache was “without benefit”. `O=C(O)Cc1ccccc1Nc1c(Cl)cccc1Cl` [diclofenac]: in the series with migraine headache, the “benefit as rescue medication” value is recorded as “without benefit”. For `CN(C)CCc1c[nH]c2ccc(Cn3cncn3)cc12` [rizatriptan], in the series with migraine headache, the “adverse effect of rescue medication” value is given as “severe elevation in their blood pressure”, the “benefit as rescue medication” value is “no longer effective” and the “share of time the rescue medication worked” value is reported as “approximately 20 % of the time”.

Take `CCN(CC)CCNC(=O)c1cc(Cl)c(N)cc1OC` [metoclopramide]: the “tolerability” value with migraine headache is on record as “intolerant”. Turning to `C[C@@H]1[C@H](c2ccccc2)C[C@H](NC(=O)c2cnc3c(c2)C[C@@]2(C3)C(=O)Nc3ncccc32)C(=O)N1CC(F)(F)F` [Ubrelvy], the “benefit as rescue medication” value in the series with migraine headache is listed as “not helpful”. As for `COC1=C(OC)C(=O)C(C/C=C(\C)CC/C=C(\C)CC/C=C(\C)CC/C=C(\C)CC/C=C(\C)CC/C=C(\C)CC/C=C(\C)CC/C=C(\C)CC/C=C(\C)CCC=C(C)C)=C(C)C1=O` [coenzyme Q10], in the series on migraine headache, the “benefit as migraine prophylactic agent” value is on record as “without benefit”, the “benefit as migraine prophylaxis” value was “no benefit” and the “effect on headache frequency” value was “did not affect the frequency of their headaches”.

B1: Emgality: prophylactic agent prescribed for chronic migraine (antibody, chains of the INN, looked up, V domains shown)
VH: QVQLVQSGAEVKKPGSSVKVSCKASGYTFGNYWMQWVRQAPGQGLEWMGAIYEGTGKTVYIQKFADRVTITADKSTSTAYMELSSLRSEDTAVYYCARLSDYVSGFGYWGQGTTVTVSS
VL: DIQMTQSPSSLSASVGDRVTITCRASKDISKYLNWYQQKPGKAPKLLIYYTSGYHSGVPSRFSGSGSGTDFTLTISSLQPEDFATYYCQQGDALPPTFGGGTKVEIK
Regarding B1, the “frequency of headaches with throbbing, light and sound sensitivity” value in the series on tension headache was “decreased to around once or twice per week”. Moreover, in the series with migraine headache, the “benefit as migraine prophylactic agent” value is given as “without benefit”; the “benefit of subsequent treatment” value is given as “reduced the pain somewhat, but had not reduced the frequency or duration”; the migraine frequency fell in the range of 2 to 3 days/week; the “tolerability” value is reported as “caused unwanted side effects”.

B2: Ajovy: prophylactic agent tried for migraines (antibody, chains of the INN, looked up, V domains shown)
VH: EVQLVESGGGLVQPGGSLRLSCAASGFTFSNYWISWVRQAPGKGLEWVAEIRSESDASATHYAEAVKGRFTISRDNAKNSLYLQMNSLRAEDTAVYYCLAYFDYGLAIQNYWGQGTLVTVSS
VL: EIVLTQSPATLSLSPGERATLSCKASKRVTTYVSWYQQKPGQAPRLLIYGASNRYLGIPARFSGSGSGTDFTLTISSLEPEDFAVYYCSQSYNYPYTFGQGTKLEIK
Consider B2, for which, in the series on migraine headache, the “benefit as migraine prophylactic agent” value is “without benefit”.
